Reference: paper PMC6934184, “Selective DNA-PKcs inhibition extends the therapeutic index of localized radiotherapy and chemotherapy” (The Journal of Clinical Investigation, 2019)

Biological target: T1, MERTK (cMER) (Homo sapiens, UniProt Q12866)
T1 construct: purchased Thermo Fisher Scientific (Life Technologies) SelectScreen
Experiment: SelectScreen Z'LYTE
Type: biochemical
How it was run: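 SelectScreen broad panel; activity (Z'LYTE, Adapta) plus binding formats. ATP: Km app for CSF1R Z'LYTE; 10 for CAMK1 Adapta. Readout = % per kinase.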

T1 sequence (Q12866 21-999): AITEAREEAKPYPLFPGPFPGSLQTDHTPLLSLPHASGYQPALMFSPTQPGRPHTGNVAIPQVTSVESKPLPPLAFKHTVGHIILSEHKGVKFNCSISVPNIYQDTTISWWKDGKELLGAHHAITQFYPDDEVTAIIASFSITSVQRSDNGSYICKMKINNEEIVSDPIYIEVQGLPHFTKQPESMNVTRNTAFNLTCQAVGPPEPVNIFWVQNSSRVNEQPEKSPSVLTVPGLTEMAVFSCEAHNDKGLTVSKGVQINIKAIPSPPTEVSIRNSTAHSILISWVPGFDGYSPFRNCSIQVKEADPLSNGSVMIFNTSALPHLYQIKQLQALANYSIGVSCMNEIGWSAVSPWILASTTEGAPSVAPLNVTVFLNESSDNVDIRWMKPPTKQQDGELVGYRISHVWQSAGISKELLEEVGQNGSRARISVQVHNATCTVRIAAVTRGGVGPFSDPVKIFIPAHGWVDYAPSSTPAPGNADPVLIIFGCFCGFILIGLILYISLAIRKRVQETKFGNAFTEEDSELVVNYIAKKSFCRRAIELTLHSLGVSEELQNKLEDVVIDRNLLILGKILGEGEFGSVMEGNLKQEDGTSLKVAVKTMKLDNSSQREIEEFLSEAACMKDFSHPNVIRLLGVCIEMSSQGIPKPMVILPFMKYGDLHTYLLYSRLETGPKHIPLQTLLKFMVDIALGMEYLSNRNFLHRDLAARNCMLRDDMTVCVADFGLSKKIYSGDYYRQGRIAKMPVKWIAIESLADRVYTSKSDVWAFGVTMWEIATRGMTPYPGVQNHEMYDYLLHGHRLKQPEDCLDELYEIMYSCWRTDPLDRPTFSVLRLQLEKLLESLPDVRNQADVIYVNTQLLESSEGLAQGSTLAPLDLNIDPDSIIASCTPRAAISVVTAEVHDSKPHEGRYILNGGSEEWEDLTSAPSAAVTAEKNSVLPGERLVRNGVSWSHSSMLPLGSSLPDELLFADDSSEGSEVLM

Q: With `CN(C(=O)CN1CCOCC1)c1ccc2sc3c(-c4cccc5c(=O)cc(N6CC7CCC(C6)O7)oc45)cccc3c2c1` [NU5455] as the compound, how does the inhibition at 1 µM read?
A: 8.3%
